Measured values as given in ChEMBL document CHEMBL1201862, “PubChem BioAssay data set” (2004).
Active and inactive are the calls of the source.

How the values were obtained:
Cytochrome P450 3A4 = Cytochrome P450 3A4 (Homo sapiens, UniProt P08684); details: Potency;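 also: confirmatory qHTS run detecting inhibitors and substrates of CYP3A4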
Cytochrome P450 2C9 = Cytochrome P450 2C9 (Homo sapiens, UniProt P11712)
Aminopeptidase N = target: T1, Aminopeptidase N (Plasmodium falciparum FcB1/Columbia, UniProt O96935); assay: malaria alanyl aminopeptidase activity blockers – biochemical, fluorogenic H-Leu-NHMec substrate, 1536-well (AID 1445); set-up: species or system Plasmodium falciparum 3D7, 3D7
T1 sequence (O96935 whole entry): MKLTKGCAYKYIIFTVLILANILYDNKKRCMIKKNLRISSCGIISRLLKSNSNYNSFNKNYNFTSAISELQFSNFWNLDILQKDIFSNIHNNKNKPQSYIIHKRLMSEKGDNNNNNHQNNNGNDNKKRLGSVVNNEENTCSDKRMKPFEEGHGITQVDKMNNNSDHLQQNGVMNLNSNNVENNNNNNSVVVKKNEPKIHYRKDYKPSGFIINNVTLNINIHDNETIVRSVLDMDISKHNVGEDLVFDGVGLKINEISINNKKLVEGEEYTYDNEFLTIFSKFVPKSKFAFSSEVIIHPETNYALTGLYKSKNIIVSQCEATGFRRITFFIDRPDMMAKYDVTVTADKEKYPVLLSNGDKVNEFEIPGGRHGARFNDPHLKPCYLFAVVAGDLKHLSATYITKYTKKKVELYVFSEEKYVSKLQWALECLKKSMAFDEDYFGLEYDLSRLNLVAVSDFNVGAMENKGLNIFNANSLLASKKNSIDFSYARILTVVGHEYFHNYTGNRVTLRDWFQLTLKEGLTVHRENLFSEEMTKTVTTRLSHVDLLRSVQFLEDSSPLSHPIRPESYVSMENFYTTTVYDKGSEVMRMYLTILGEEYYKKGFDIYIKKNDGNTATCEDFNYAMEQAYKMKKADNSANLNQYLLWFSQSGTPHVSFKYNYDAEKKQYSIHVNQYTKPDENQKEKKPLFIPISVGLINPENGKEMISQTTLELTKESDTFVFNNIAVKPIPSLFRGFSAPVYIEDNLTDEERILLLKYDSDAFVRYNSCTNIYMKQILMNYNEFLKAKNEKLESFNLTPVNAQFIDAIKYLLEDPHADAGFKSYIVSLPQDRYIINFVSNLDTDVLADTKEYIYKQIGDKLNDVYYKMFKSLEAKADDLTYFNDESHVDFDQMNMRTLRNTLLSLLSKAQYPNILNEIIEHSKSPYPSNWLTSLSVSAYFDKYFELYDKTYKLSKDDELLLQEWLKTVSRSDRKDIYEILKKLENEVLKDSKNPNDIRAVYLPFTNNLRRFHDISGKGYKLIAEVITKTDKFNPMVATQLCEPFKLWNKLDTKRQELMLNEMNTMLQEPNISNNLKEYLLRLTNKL

[1] = target: T2, Zinc finger protein mex-5 (Caenorhabditis elegans, UniProt Q9XUB2); assay: potency of MEX-5 RNA-binding blockers – biochemical, C. elegans, fluorescence polarization, dose response (AID 1960)
T2 sequence (Q9XUB2 whole entry): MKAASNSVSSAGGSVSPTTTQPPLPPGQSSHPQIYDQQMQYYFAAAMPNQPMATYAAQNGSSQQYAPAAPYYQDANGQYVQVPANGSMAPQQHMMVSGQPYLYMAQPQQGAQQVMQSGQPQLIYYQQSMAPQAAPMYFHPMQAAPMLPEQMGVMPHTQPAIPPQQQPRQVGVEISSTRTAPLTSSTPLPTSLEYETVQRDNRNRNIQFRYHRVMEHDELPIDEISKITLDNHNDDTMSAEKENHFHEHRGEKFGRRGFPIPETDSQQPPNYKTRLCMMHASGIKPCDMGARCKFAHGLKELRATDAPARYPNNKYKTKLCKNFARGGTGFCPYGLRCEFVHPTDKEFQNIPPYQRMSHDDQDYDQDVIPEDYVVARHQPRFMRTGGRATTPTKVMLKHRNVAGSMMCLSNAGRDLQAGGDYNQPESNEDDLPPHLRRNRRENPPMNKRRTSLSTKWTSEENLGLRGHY

[2] = target: T3, RNA-binding protein pos-1 (Caenorhabditis elegans, UniProt G5EF15); assay: disruptors of C. elegans POS-1 RNA interaction – biochemical, fluorescence polarization, dose response (AID 1964);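 also: purified POS-1 fused to maltose binding protein made in E. coli; potency of compounds blocking POS-1 binding to fluorescent RNA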
T3 sequence (G5EF15 whole entry): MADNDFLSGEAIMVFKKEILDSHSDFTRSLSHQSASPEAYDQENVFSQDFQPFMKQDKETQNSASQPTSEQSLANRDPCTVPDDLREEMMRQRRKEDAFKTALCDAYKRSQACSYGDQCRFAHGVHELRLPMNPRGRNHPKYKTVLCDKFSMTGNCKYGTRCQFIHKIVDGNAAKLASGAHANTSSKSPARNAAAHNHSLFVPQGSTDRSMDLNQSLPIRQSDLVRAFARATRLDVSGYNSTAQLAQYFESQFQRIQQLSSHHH

Leucine aminopeptidase = target: T4, Leucine aminopeptidase (Plasmodium falciparum 3D7, UniProt Q8IL11); assay: P. falciparum M17LAP inhibitors, primary screen, biochemical, fluorogenic H-Leu-NHMec substrate, 1536-well (AID 1619); assay type: functional
T4 sequence (Q8IL11 whole entry): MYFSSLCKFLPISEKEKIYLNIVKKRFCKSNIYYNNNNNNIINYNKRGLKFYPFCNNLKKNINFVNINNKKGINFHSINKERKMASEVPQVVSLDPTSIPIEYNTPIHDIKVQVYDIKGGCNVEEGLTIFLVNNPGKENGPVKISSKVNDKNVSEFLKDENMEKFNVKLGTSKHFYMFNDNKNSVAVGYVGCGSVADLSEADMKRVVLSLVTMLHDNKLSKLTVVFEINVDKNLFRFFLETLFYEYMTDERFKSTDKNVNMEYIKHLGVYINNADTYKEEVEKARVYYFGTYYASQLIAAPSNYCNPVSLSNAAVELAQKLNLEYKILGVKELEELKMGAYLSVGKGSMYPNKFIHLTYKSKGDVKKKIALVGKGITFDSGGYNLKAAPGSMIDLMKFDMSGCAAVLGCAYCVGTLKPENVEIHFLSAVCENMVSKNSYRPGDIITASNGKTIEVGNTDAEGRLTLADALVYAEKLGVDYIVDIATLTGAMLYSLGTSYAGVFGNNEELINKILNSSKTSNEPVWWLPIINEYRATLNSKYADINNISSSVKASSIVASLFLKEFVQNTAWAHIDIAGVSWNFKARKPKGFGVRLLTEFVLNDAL

Protein RecA = target: T5, Protein RecA (Mycobacterium tuberculosis, UniProt P9WHJ3); assay: Fluorescence Cell-Free Homogeneous Dose Retest to Identify Inhibitors of RecA-Intein Splicing Activity. [Related pubchem assays (depositor defined):AID2097, AID2223, AID489010, AID492950]; assay type: functional
T5 sequence (P9WHJ3 whole entry): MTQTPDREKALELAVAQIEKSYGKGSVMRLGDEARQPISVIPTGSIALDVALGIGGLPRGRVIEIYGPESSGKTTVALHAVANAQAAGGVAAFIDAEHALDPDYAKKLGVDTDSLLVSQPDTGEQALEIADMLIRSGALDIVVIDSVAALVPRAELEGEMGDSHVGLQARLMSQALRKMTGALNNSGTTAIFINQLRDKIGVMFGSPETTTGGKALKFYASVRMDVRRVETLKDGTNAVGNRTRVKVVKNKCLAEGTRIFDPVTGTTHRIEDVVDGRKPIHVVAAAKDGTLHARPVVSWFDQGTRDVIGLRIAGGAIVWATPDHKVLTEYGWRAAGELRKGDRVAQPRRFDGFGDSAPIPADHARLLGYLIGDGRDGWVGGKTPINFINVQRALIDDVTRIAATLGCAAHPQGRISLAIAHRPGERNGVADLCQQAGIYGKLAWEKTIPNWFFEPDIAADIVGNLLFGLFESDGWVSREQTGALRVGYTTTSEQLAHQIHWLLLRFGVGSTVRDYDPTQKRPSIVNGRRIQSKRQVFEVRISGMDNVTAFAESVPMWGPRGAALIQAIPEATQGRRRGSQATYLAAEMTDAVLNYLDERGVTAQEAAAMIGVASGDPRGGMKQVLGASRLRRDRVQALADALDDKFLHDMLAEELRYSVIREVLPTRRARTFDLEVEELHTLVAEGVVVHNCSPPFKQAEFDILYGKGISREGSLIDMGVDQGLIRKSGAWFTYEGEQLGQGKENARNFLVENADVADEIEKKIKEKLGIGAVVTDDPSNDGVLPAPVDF

[3] = viability of uninfected HEp-2 cells – cell-based, HTS, cytotoxicity control for RSV inhibitor project, dose response (AID 2410); assay type: functional; details: human respiratory syncytial virus
[4] = target: T6, Replicative DNA helicase DnaB (Mycobacterium tuberculosis, UniProt P9WMR3); assay: DnaB intein splicing inhibitors, dose response, biochemical, cell-free fluorescence (AID 449749); assay type: functional
T6 sequence (P9WMR3 whole entry): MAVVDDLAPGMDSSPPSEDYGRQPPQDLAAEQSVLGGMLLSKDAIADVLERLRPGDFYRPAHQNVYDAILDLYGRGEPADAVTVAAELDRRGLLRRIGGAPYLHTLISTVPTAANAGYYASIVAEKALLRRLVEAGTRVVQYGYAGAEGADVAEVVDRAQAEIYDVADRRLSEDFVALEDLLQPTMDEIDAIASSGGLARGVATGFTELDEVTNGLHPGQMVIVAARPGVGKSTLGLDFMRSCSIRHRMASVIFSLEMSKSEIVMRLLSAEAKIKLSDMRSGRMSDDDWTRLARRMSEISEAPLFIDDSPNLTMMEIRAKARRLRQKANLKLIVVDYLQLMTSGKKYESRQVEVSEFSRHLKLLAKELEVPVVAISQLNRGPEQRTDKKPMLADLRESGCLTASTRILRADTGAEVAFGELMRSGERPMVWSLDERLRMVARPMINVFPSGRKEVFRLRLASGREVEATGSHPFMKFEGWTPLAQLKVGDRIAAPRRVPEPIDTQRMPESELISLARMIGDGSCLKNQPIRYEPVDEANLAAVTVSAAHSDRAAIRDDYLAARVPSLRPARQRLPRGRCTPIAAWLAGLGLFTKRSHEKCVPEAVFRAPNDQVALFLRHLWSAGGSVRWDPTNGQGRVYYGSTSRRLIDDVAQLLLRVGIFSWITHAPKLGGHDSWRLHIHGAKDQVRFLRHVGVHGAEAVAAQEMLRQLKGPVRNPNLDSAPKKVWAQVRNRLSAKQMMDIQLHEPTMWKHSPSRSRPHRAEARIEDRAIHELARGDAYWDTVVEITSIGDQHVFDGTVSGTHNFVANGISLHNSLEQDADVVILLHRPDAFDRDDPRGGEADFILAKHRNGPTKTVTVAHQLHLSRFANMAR

Cytochrome P450 3A4, sequence (P08684 whole entry): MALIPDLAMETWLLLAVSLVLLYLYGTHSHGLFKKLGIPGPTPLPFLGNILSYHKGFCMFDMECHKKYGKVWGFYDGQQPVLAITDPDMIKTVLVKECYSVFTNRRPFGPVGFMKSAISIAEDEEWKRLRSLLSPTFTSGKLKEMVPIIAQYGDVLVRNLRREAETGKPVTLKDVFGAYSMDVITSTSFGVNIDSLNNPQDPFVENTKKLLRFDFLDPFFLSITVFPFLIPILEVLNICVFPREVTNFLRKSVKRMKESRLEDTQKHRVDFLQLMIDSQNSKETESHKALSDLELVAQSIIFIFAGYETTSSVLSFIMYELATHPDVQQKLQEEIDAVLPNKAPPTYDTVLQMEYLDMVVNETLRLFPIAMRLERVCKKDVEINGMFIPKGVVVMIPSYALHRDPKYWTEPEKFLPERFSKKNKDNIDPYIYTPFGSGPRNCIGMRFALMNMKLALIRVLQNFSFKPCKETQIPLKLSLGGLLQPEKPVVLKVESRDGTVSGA
Cytochrome P450 2C9, sequence (P11712 whole entry): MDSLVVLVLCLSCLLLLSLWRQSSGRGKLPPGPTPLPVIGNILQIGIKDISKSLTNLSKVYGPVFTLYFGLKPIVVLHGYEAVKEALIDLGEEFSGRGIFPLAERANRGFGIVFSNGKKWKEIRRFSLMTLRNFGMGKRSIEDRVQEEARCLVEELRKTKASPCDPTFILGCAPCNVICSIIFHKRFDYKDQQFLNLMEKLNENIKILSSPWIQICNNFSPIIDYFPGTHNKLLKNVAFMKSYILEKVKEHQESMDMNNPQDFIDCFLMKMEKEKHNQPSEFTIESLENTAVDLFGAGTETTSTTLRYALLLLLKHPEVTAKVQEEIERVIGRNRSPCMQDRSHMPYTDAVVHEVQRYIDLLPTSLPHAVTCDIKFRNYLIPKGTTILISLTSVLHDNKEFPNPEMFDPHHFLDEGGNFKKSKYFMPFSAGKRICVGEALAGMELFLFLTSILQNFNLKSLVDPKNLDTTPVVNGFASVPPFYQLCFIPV

CCN1C(C)=C(C(=O)OC)C(c2ccccc2)N2C(=O)[C@](O)(C(=O)OC)C(c3ccccc3)C(C(C)=O)=C12 (stereo not given in full)
AC50 (Cytochrome P450 3A4): 3.98 µM (inconclusive)

COc1cccc(Nc2ncc3nc(-c4ccc(F)cc4)c(=O)n(CCC#N)c3n2)c1
AC50 (Cytochrome P450 2C9): inconclusive

O=C(CN1CCC(NC(=O)c2cccc(F)c2)CC1)NCc1cccs1
IC50 (Aminopeptidase N): 22.6 µM (active)

N#Cc1ccc(C23CC4(C2)[C@H](CN(CC2CCCCC2)[C@@H]4c2ccccc2)C3c2ccc(Cl)nc2)cc1 (stereo not given in full)
AC50 (Cytochrome P450 3A4): 15.8 µM (inconclusive)

CCn1c(SCC(=O)Nc2cc(C)on2)nnc1-c1ccc(OC)cc1
EC50 [1]: > 300 µM (not active) | EC50 [2]: > 300 µM (not active)

C=CCN1C(=O)NC(=O)/C(=C/c2ccc(OCC(=O)Nc3ccc(C)cc3)cc2)C1=O
EC50 [1]: > 300 µM (not active) | EC50 [2]: > 300 µM (not active)

Nc1n[nH]c(N)c1N=Nc1ccc(Cl)cc1
IC50 (Leucine aminopeptidase): 12.5 µM (active)

CCOC(=O)C1Nc2c(F)cc(C)cc2C2c3ccccc3CC12 (stereo not given)
EC50 (Protein RecA): 36 µM (active) | CC50 [3]: 31.9 µM (active) | AC50 [4]: 11.4 µM (active)

O=C(O)Cn1cc(/C=C2\C(=O)NC(=O)N(c3ccc(F)cc3)C2=O)c2ccccc21
EC50 [1]: 8.21 µM (active) | EC50 [2]: 9.27 µM (active)

CC(C)c1c(O)ccc2c1CCC1[C@@](C)(C=O)CCC[C@@]21C (stereo not given in full)
AC50 (Cytochrome P450 3A4): 31.6 µM (inconclusive)

Cc1ccc(C2c3sc(=O)[nH]c3SC3C(=O)NC(=O)C32)cc1 (stereo not given)
EC50 [1]: 6.53 µM (inconclusive) | EC50 [2]: > 300 µM (inconclusive)

O=C(CSc1nnc(-c2ccc(NS(=O)(=O)c3ccccc3)cc2)o1)NCC1CCCO1 (stereo not given)
IC50 (Leucine aminopeptidase): 6.04 µM (active)

COc1ccc2c(c1OC)C(=O)OC2Nc1nc(-c2cc3ccccc3oc2=O)cs1 (stereo not given)
IC50 (Leucine aminopeptidase): 5.03 µM (active)

CC(=O)c1c(O)c(C)c(O)c2c1OC1=CC(=O)C(C(C)=O)C(=O)C12C (stereo not given)
AC50 (Cytochrome P450 3A4): 0.159 µM (inconclusive)

CN1C(=O)C(=Cc2cn(CC(=O)N3CCCCC3)c3ccccc23)C(=O)N(C)C1=O
EC50 [1]: > 300 µM (not active) | EC50 [2]: > 300 µM (not active)

O=C1c2c(O)cc(O)cc2OC(c2ccc(O)c(O)c2)C1O (stereo not given) [TAXIFOLIN]
AC50 (Cytochrome P450 3A4): 25.1 µM (inconclusive)

COc1ccc(-c2nnc(SCc3cccc(C)c3)n2N)cc1
AC50 (Cytochrome P450 2C9): inconclusive

COC(=O)CCCCCN1C(=O)NC(CC2CC2)C(C(=O)OCc2ccccc2)=C1C (stereo not given)
AC50 (Cytochrome P450 3A4): 20 µM (inconclusive)

CCOP(=O)(OCC)c1nc(/C=C/c2ccccc2)oc1NCc1ccc(OC)cc1
IC50 (Aminopeptidase N): 128 µM (active)

COCc1cc(O)n2nc(-c3cccs3)cc2n1
EC50 [1]: > 300 µM (not active) | EC50 [2]: > 300 µM (not active)

Cc1ccccc1NS(=O)(=O)c1cc(C(=O)N2CCCC2)ccc1C
EC50 [1]: > 300 µM (not active) | EC50 [2]: > 300 µM (not active)
